# Data: publication PMC12311259, “Antifibrotic effects of specific targeting of the 5‐hydroxytryptamine 2B receptor (5‐HT2BR) in murine models and ex vivo models of scleroderma skin” (Arthritis & Rheumatology (Hoboken, N.j.), 2025)
# Assays:
# [1] = target: T1, Histamine H1 (hu) (Homo sapiens, UniProt P35367); experiment: Functionality assay, GTPγS Binding, Eurofins Panlabs 313200; assay type: biochemical
# T1 construct: Eurofins Panlabs 313200
# From the text: (§1) Effects were considered significant if AM1476's mean value was three or more SDs above the vehicle control mean in the agonist assay or three or more SDs below the positive control agonist (5‐nM α‐methylserotonin) mean in the antagonist assay. AM1476 was screened for selectivity against approximately 200 targets using a Eurofins Panlabs Spectrum screen panel including enzymatic and receptor binding assays.
# [2] = test system: Sodium Channel, Site 2 (gp); experiment: Functionality assay, Eurofins Panlabs 475010; assay type: biochemical, guinea pig
# From the text: as §1
# [3] = target: T2, Serotonin (5-Hydroxytryptamine) 5-HT5A (hu) (Homo sapiens, UniProt P47898); experiment: Receptor binding, Eurofins Panlabs 272100
# T2 construct: Eurofins Panlabs 272100
# T2 sequence (P47898 whole entry): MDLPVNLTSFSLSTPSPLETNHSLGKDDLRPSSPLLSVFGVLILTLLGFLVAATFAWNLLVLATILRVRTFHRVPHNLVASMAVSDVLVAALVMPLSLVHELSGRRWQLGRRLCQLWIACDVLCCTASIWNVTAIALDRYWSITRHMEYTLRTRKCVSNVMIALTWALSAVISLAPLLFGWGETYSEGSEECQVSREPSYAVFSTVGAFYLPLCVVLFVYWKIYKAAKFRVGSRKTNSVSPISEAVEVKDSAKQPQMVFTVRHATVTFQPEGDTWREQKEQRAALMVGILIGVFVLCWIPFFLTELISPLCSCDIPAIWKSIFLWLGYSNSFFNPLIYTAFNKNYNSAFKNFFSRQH
# From the text: as §1
# [4] = target: T3, Adrenergic β2 (hu) (Homo sapiens, UniProt P07550); experiment: Functionality assay, Adenylyl Cyclase, Eurofins Panlabs 302150; assay type: cell-based
# T3 construct: Eurofins Panlabs 302150
# T3 sequence (P07550 whole entry): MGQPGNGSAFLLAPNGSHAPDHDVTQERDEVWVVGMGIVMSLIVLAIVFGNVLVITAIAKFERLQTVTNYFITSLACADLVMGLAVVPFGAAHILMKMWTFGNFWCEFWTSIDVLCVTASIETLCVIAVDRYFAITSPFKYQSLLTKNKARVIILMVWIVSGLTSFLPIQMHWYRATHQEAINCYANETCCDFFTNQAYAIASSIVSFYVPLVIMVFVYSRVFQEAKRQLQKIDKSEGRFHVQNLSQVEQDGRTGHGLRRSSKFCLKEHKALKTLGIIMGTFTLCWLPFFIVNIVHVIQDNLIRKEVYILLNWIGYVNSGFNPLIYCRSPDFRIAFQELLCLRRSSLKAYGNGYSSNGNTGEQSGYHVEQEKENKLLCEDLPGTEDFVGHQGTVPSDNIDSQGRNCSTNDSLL
# From the text: as §1
# [5] = target: T4, Serotonin 5-HT6 (hu) (Homo sapiens, UniProt P50406); experiment: Functionality assay, Adenylyl Cyclase, Eurofins Panlabs 318000; assay type: cell-based
# T4 construct: 318000 (adenylyl cyclase)
# T4 sequence (P50406 whole entry): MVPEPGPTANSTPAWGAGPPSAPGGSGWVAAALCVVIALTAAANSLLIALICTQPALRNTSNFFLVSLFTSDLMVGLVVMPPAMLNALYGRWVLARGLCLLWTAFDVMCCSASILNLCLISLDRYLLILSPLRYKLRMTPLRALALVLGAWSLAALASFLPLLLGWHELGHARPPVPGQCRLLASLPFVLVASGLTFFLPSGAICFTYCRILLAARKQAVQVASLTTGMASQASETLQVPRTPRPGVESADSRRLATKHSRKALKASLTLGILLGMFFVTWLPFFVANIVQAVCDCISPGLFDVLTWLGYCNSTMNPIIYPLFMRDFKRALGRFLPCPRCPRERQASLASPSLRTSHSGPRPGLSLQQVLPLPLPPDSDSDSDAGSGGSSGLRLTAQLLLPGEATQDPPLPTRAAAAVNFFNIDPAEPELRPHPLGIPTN
# From the text: as §1
# [6] = target: T5, Serotonin (5-Hydroxytryptamine) 5-HT7 (hu) (Homo sapiens, UniProt P34969); experiment: Receptor binding, Eurofins Panlabs 272320
# T5 construct: Eurofins Panlabs 272320
# T5 sequence (P34969 whole entry): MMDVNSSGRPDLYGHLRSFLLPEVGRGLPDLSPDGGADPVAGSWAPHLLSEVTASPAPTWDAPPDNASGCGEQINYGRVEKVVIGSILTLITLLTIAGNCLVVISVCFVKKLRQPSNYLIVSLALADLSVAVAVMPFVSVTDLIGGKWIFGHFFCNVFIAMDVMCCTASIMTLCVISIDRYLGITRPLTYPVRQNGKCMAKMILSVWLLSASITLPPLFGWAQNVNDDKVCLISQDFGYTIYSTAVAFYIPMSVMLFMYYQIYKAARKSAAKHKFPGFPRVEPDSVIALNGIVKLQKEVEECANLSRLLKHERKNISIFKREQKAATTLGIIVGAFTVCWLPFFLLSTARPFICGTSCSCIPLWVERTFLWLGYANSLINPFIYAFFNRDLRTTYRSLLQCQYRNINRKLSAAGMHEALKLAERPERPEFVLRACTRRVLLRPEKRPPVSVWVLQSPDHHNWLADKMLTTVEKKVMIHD
# From the text: as §1
# [7] = target: T6, human 5-HT2AR (Homo sapiens, UniProt P28223); experiment: Functionality assay, HTRF quantification of IP1 accumulation in CHO-K1 cells; assay type: cell-based; details: inhibition of 5-HT (5 nM) induced IP1 response, read-out: IC50, antagonistic activity, human 5-HT2A
# T6 construct: 355250 (IP1); host or cells: CHO-K1
# T6 sequence (P28223 whole entry): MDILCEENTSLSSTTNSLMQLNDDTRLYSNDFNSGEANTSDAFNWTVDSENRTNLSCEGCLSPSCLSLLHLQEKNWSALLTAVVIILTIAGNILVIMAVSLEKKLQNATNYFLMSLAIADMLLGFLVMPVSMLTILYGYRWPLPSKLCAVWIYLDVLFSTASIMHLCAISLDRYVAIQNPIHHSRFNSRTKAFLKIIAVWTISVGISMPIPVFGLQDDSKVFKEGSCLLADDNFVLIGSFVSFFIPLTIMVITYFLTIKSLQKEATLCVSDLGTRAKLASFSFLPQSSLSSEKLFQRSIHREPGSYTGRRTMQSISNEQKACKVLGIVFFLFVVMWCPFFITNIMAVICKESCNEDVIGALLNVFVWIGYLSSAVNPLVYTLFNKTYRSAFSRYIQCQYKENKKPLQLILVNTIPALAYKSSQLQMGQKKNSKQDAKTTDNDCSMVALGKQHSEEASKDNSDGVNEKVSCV
# Method: The binding profile of AM1476 was evaluated for binding to human 5‐HT2AR, 5‐HT2BR, and 5‐HT2CR in radioligand binding assays using Chinese hamster ovary (CHO‐K1) cells overexpressing human receptors (in vitro assays 271650, 271700, and 271800; Eurofins Panlabs Discovery). AM1476 was evaluated at 0.1, 1, 10, 100, 1,000, and 10,000 nM (5‐HT2BR) or at 1, 10, 100, 1,000, and 10,000 nM (5‐HT2AR and 5‐HT2CR). Human 5‐HT2AR and 5‐HT2BR functionality was measured with homogeneous time‐resolved fluorescence quantification of IP1 accumulation in CHO‐K1 cells (in vitro assays 355250 and 355260). Compounds creating a ≥50% inhibition of 5‐HT (5 nM) induced fluorescence response specified receptor antagonist activity. 5‐HT2CR functionality was assessed with [35S] GTPγS for quantification of bound GTPγS. Compounds creating a ≥50% inhibition of 5‐HT (100 nM) induced [35S] GTPγS binding response specified receptor antagonist activity (in vitro assay 355200). AM1476 was evaluated at 0.1, 0.3, 1, 3, 10, 30, and 300 nM (5‐HT2BR) or 1, 10, 100, 1,000, and 10,000 nM (5‐HT2AR and 5‐HT2CR). […] Mouse 5‐HT2BR functionality was measured in a calcium influx assay (Charles River) in CHO‐KI cells expressing the mouse 5‐HT2BR using a calcium sensitive dye and a fluorescence imaging plate reader (FLIPRTETRA) instrument. AM1476 was evaluated at 0.3, 1, 3, 10, 30, 100, 300, and 1,000 nM.
# [8] = target: T7, Adrenergic α1B (hu) (Homo sapiens, UniProt P35368); experiment: Functionality assay, IP1, Eurofins Panlabs 302060; assay type: cell-based
# T7 construct: Eurofins Panlabs 302060
# T7 sequence (P35368 whole entry): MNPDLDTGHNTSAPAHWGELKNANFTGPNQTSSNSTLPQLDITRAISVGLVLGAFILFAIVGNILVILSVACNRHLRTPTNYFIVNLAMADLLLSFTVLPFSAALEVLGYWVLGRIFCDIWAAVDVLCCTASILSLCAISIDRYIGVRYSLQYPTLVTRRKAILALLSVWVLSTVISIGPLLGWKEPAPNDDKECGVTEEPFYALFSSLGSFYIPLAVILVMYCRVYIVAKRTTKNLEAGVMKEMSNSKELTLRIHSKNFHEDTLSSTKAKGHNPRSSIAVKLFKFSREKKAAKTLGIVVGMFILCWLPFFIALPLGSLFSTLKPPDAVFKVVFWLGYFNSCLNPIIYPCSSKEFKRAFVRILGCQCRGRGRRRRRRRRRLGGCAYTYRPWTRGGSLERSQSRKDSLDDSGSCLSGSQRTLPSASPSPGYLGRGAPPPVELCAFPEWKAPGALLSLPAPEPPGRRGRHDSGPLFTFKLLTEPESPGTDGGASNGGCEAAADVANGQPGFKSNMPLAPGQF
# From the text: as §1
# T1 sequence (P35367 whole entry): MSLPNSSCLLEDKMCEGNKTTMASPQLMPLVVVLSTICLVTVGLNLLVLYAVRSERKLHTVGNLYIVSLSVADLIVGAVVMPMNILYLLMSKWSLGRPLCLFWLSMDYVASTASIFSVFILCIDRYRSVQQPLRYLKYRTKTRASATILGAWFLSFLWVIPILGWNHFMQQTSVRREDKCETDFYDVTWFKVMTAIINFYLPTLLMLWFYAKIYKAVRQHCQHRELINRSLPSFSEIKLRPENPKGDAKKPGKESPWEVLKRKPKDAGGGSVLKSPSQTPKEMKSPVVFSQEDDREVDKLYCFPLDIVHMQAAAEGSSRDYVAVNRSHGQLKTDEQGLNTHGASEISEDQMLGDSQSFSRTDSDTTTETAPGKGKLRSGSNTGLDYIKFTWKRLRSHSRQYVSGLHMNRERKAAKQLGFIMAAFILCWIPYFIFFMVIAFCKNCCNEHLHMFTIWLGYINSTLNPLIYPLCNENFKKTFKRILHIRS
compound,measurement,setting,value
C[C@@H]1CN(C(=N)N)N=C1c1ccc(F)cc1O [AM1476],IC50,[1],28 µM
same,"agonistic activity, Histamine H1",[1]; at 30 µM,No significant agonistic activity at 30 µM
same,IC50,[2],> 30 µM
same,"agonistic activity, Sodium Channel, Site 2",[2]; at 30 µM,No significant agonistic activity at 30 µM
same,"% Inhibition at 1 µM, 5-HT5A (hu)",[3]; 1 µM (value in brackets),10%
same,"% Inhibition at 10 µM, 5-HT5A (hu)",[3]; 10 µM,70%
same,IC50,[4],154 µM
same,"agonistic activity, Adrenergic β2",[4]; at 300 µM,No significant agonistic activity at 300 µM
same,IC50,[5],4.55 µM
same,"agonistic activity, Serotonin 5-HT6",[5]; at 30 µM,No significant agonistic activity at 30 µM
same,"% Inhibition at 1 µM, 5-HT7 (hu)",[6]; 1 µM (value in brackets),39%
same,"% Inhibition at 10 µM, 5-HT7 (hu)",[6]; 10 µM,91%
same,IC50,[7],> 10 µM
same,IC50,[8],9.53 µM
same,"agonistic activity, Adrenergic α1B",[8]; at 30 µM,No significant agonistic activity at 30 µM
